Laboratory results from patent US20140031278A1, “Novel Glucagon Analogues” (NOVO NORDISK A/S, priority 2011, published 2014).
*1 amine or outer side, *2 acyl side, *3 side chain or, on linkers, in order; H or OH if unused. Where a SMILES comes first, the peptide text is derived from it. Side-chain parts run from the residue outwards. [ ]: non-standard residue; d: D form. γGlu = O=C(O)[C@H](CCC(=O)[*:2])N[*:1]; Aib = CC(C)(N)C(=O)O

Columns and labels:
[1] = ThT fibrillation assay for physical stability (lag time, recovery); type: physicochemical; settings: absence of increased ThT fluorescence noted as lag time of 45 hours
From the text: This has traditionally been measured by visual inspection of the sample. However, that kind of measurement is very subjective and depending on the observer. Therefore, the application of a small molecule indicator probe is much more advantageous. […] Enzymol.
Here, F is the ThT fluorescence at the time t.
The lag-time corresponds to the interval in which the critical mass of nucleus is built up and the apparent rate constant is the rate with which the fibril itself is formed.
Samples were prepared freshly before each assay. […] The pH of the sample was adjusted to the desired value using appropriate amounts of concentrated NaOH and HCl.
The plate was sealed with Scotch Pad (Qiagen).
Each run was initiated by incubating the plate at the assay temperature for 10 min. The plate was measured every 20 minutes for a desired period of time. Between each measurement, the plate was shaken and heated as described.
The supernatant was filtered through a 0.22 μm filter and an aliquot was transferred to a HPLC vial.
The data set may be fitted to Eq. (1).

glucagon receptor = target: T1, glucagon receptor (Homo sapiens, UniProt P47871); experiment: Assay (I) Glucagon activity (cAMP biosensor, FLIPR); type: cell-based; settings: HEK-293 cells with cloned glucagon receptor and cAMP biosensor; end point after 6 minutes
T1 construct: expressed in transfected cells
Summary of the method: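 HEK-293 cells expressing glucagon receptor with membrane cAMP biosensor (ACTOne), calcium-dye loaded with probenecid and a PDE inhibitor.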

T1 sequence (P47871 26-477): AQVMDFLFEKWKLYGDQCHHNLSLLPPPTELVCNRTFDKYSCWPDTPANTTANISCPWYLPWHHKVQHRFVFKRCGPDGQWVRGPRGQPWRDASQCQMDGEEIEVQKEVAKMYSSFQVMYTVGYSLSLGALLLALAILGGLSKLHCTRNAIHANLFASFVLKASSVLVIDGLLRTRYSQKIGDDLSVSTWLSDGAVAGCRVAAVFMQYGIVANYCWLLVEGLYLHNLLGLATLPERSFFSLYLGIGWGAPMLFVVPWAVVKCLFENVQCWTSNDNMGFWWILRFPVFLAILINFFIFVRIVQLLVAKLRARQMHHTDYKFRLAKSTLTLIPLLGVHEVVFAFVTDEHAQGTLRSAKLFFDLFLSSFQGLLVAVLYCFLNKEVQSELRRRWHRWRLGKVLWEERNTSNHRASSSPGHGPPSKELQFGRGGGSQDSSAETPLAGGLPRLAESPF

**Q.** With `CC(=O)N[C@@H](CCC(=O)N[C@@H](CCC(=O)N[C@@H](CCC(=O)N[C@@H](CCC(=O)NCCCC[C@H](NC(=O)[C@@H](NC(=O)[C@H](Cc1ccccc1)NC(=O)[C@H](CCC(=O)O)NC(=O)[C@H](C)NC(=O)[C@H](C)NC(=O)[C@H](CCCNC(=N)N)NC(=O)[C@H](CCCNC(=N)N)NC(=O)[C@@H](NC(=O)[C@H](CC(=O)O)NC(=O)[C@H](CC(C)C)NC(=O)[C@H](Cc1ccc(O)cc1)NC(=O)[C@H](CCCCN)NC(=O)[C@H](CO)NC(=O)[C@H](Cc1ccc(O)cc1)NC(=O)[C@H](CC(=O)O)NC(=O)[C@H](CO)NC(=O)[C@@H](NC(=O)[C@H](Cc1ccccc1)NC(=O)[C@@H](NC(=O)CNC(=O)[C@H](Cc1c[nH]cn1)NC(=O)C(C)(C)NC(=O)[C@@H](N)Cc1c[nH]cn1)[C@@H](C)O)[C@@H](C)O)C(C)C)C(C)C)C(=O)N[C@@H](Cc1c[nH]c2ccccc12)C(=O)N[C@@H](CC(C)C)C(=O)N[C@@H](CC(C)C)C(=O)N[C@@H](CO)C(=O)N[C@H](C(=O)O)[C@@H](C)O)C(=O)O)C(=O)O)C(=O)O)C(=O)O` [Example 48, N^ε24-[(4S)-4-[[(4S)-4-[[(4S)-4-[[(4S)-4-acetamido-4-carboxybutanoyl]amino]-4-carboxybutanoyl]amino]-4-carboxybutanoyl]amino]-4-carboxybutanoyl]-[Aib^2,His^3,Val^16,Ala^20,Glu^21,Lys^24,Leu^27,Ser^28]-Glucagon] (H-H[Aib]HGTFTSDYSKYLDVRRAAEFVK([γGlu-γGlu-γGlu-γGlu-Ac])WLLST-OH) as the compound, how does the “ThT assay [Lag time]” value [1] read?
**A.** Its value is 14 h.

**Q.** What about the EC50 (glucagon receptor) of the same compound?
**A.** The EC50 was 0.005 nM.

**Q.** With `CC(C)C[C@H](NC(=O)[C@H](Cc1ccc(O)cc1)NC(=O)[C@H](CCCNC(=N)N)NC(=O)[C@H](CO)NC(=O)[C@H](Cc1ccc(O)cc1)NC(=O)[C@H](CC(=O)O)NC(=O)[C@H](CO)NC(=O)[C@@H](NC(=O)[C@H](Cc1ccccc1)NC(=O)[C@@H](NC(=O)CNC(=O)[C@H](Cc1c[nH]cn1)NC(=O)[C@H](CO)NC(=O)[C@@H](N)Cc1c[nH]cn1)[C@@H](C)O)[C@@H](C)O)C(=O)N[C@@H](CCC(=O)O)C(=O)N[C@@H](CO)C(=O)N[C@@H](CCCNC(=N)N)C(=O)N[C@@H](CCCNC(=N)N)C(=O)N[C@@H](C)C(=O)N[C@@H](C)C(=O)N[C@@H](CC(=O)O)C(=O)N[C@@H](Cc1ccccc1)C(=O)N[C@H](C(=O)N[C@@H](CCCCNC(=O)CC[C@H](NC(=O)CC[C@H](NC(=O)CC[C@H](NC(=O)CC[C@H](N)C(=O)O)C(=O)O)C(=O)O)C(=O)O)C(=O)N[C@@H](Cc1c[nH]c2ccccc12)C(=O)N[C@@H](CC(C)C)C(=O)N[C@@H](CC(C)C)C(=O)N[C@@H](CO)C(=O)N[C@H](C(=O)O)[C@@H](C)O)C(C)C` [Example 6, N^ε24-[(4S)-4-[[(4S)-4-[[(4S)-4-[[(4S)-4-amino-4-carboxybutanoyl]amino]-4-carboxybutanoyl]amino]-4-carboxybutanoyl]amino]-4-carboxybutanoyl]-[His3,Arg12,Glu15,Ala20,Lys24,Leu27,Ser28]-Glucagon] (H-HSHGTFTSDYSRYLESRRAADFVK([γGlu-γGlu-γGlu-γGlu])WLLST-OH) as the compound, how does the EC50 (glucagon receptor) read?
**A.** Its EC50 is 0.0795 nM.

**Q.** For `CC(=O)N[C@@H](CCC(=O)N[C@@H](CCC(=O)N[C@@H](CCC(=O)N[C@@H](CCC(=O)NCCCC[C@H](NC(=O)[C@@H](NC(=O)[C@H](Cc1ccccc1)NC(=O)[C@H](CCC(=O)O)NC(=O)[C@H](C)NC(=O)[C@H](C)NC(=O)[C@H](CCCNC(=N)N)NC(=O)[C@H](CCCNC(=N)N)NC(=O)[C@@H](NC(=O)[C@H](CC(=O)O)NC(=O)[C@H](CC(C)C)NC(=O)[C@H](Cc1ccc(O)cc1)NC(=O)[C@H](CCCCN)NC(=O)[C@H](CO)NC(=O)[C@H](Cc1ccc(O)cc1)NC(=O)[C@H](CC(=O)O)NC(=O)[C@H](CO)NC(=O)[C@@H](NC(=O)[C@H](Cc1ccccc1)NC(=O)[C@@H](NC(=O)CNC(=O)[C@H](Cc1c[nH]cn1)NC(=O)CNC(=O)[C@@H](N)Cc1c[nH]cn1)[C@@H](C)O)[C@@H](C)O)C(C)C)C(C)C)C(=O)N[C@@H](Cc1c[nH]c2ccccc12)C(=O)N[C@@H](CC(C)C)C(=O)N[C@@H](CC(C)C)C(=O)N[C@@H](CO)C(=O)N[C@H](C(=O)O)[C@@H](C)O)C(=O)O)C(=O)O)C(=O)O)C(=O)O` [Example 46, N^ε24-[(4S)-4-[[(4S)-4-[[(4S)-4-[[(4S)-4-acetamido-4-carboxybutanoyl]amino]-4-carboxybutanoyl]amino]-4-carboxybutanoyl]amino]-4-carboxybutanoyl]-[Gly^2,His^3,Val^16,Ala^2°,Glu^21,Lys^24,Leu^27,Ser^28]-Glucagon] (H-HGHGTFTSDYSKYLDVRRAAEFVK([γGlu-γGlu-γGlu-γGlu-Ac])WLLST-OH), which EC50 (glucagon receptor) is on record?
**A.** The EC50 was 0.024 nM.

**Q.** With `CC(=O)N[C@@H](CCC(=O)N[C@@H](CCC(=O)N[C@@H](CCC(=O)N[C@@H](CCC(=O)NCCCC[C@H](NC(=O)[C@@H](NC(=O)[C@H](Cc1ccccc1)NC(=O)[C@H](CC(=O)O)NC(=O)[C@H](CCC(N)=O)NC(=O)[C@H](C)NC(=O)[C@H](CCCNC(=N)N)NC(=O)[C@H](CCCNC(=N)N)NC(=O)[C@H](CO)NC(=O)[C@H](CCC(=O)O)NC(=O)[C@H](CC(C)C)NC(=O)[C@H](Cc1ccc(O)cc1)NC(=O)[C@H](CCCCN)NC(=O)[C@H](CO)NC(=O)[C@@H](NC(=O)[C@H](CC(=O)O)NC(=O)[C@H](CO)NC(=O)[C@@H](NC(=O)[C@H](Cc1ccccc1)NC(=O)[C@@H](NC(=O)CNC(=O)[C@H](CCC(N)=O)NC(=O)[C@H](CO)NC(=O)[C@@H](N)Cc1c[nH]cn1)[C@@H](C)O)[C@@H](C)O)C(C)C)C(C)C)C(=O)N[C@@H](Cc1c[nH]c2ccccc12)C(=O)N[C@@H](CC(C)C)C(=O)N[C@@H](CC(C)C)C(=O)N[C@@H](CO)C(=O)N[C@H](C(=O)O)[C@@H](C)O)C(=O)O)C(=O)O)C(=O)O)C(=O)O` [Example 44, N^ε24-[(4S)-4-[[(4S)-4-[[(4S)-4-[[(4S)-4-acetamido-4-carboxybutanoyl]amino]-4-carboxybutanoyl]amino]-4-carboxybutanoyl]amino]-4-carboxybutanoyl]-[Val^10,Glu^15,Lys^24,Leu^27,Ser^28]-Glucagon] (H-HSQGTFTSDVSKYLESRRAQDFVK([γGlu-γGlu-γGlu-γGlu-Ac])WLLST-OH) as the compound, how does the EC50 (glucagon receptor) read?
**A.** The EC50 was 0.075 nM.
